Results taken from article PMC4186413, “Identification of metabolic pathways and enzyme systems involved in the in vitro human hepatic metabolism of dronedarone, a potent new oral antiarrhythmic drug” (Pharmacology Research & Perspectives, 2014).

Assays:
[1] = system: Total CYPs; test: Contribution of total CYPs to hepatocyte clearance (1-aminobenzotriazole inhibitory effect); type: in vitro ADME, human; conditions: for Effect of ABT on metabolism in hepatocytes (words): 1 mmol/L ABT, 5 μmol/L drug; for fm Total CYPs, Mean ± SD: mean of hepatocyte preparations
Protocol: Experiments were performed in 48-well plastic plates coated with rat tail Collagen type I. Plates were seeded with 0.16 × 10^5 hepatocytes per well in a final volume of 0.2 mL and incubated at 37°C under a 95% humidified air and 5% CO2 atmosphere. After 3 h during which cells were allowed to attach, the medium was renewed with 0.1 mL serum-free medium. Then, the investigated drug or metabolic probe(s) were added directly to the incubation medium in the absence or the presence of inhibitors such as either ketoconazole as a specific and potent CYP3A inhibitor (3 μmol/L final concentration), clorgyline (0.25 μmol/L final concentration) as a potent MAO-A inhibitor or ABT as a potent but nonselective CYP isoforms inhibitor (1 mmol/L final concentration) (Fabre et al. [1988]; Bourrié et al. [1996]; Klieber et al. [2008]). Regardless of the final concentration investigated, the final solvent (DMSO) concentration never exceeded 0.2% (v/v).
To determine the metabolism of the different compounds (metabolic probes, dronedarone, N-debutyl-dronedarone, propanoic acid-dronedarone, phenol-dronedarone, and C-dealkyl-dronedarone), kinetic studies were performed over 0–24 h. For each time point, 0.1 mL of acetonitrile was added to the specific well for protein precipitation, and both extracellular medium and the cell fraction were scraped together. Cell extracts were transferred to a glass tube and stored at −20°C until analysis. Before analysis, cell homogenates were sonicated for a few seconds, homogenized and centrifuged at 6000 g for 10 min. Supernatant fluids were then analyzed for the different drugs and their specific metabolites.
The fraction metabolized (fm) by MAO, CYP3A or total CYPs was determined using the following equation: [drawing 3] where: kei is the elimination rate constant (expressed in h^−1) in the presence of the inhibitor.
The kinetics of drug disappearance were investigated using four different cryopreserved human hepatocyte preparations in primary cultures following incubation with either dronedarone or its metabolites at a concentration of 5 μmol/L. Incubations were performed either in the absence, that is control conditions, or in the presence of enzyme system inhibitors such as 3 μmol/L ketoconazole (specific and potent inhibitor of CYP3A4/5), 1 mmol/L ABT (a potent and […] inhibitor of total CYPs), or 0.25 μmol/L clorgyline (a potent MAO-A inhibitor) (Dorris [1982]). Kinetic studies were performed over 24 h.

[2] = Glucuronidation by human hepatic microsomal fractions with UDPGA; type: in vitro ADME; conditions: 5 μmol/L; for Metabolism in the presence of UDPGA: UDPGA as cofactor
Protocol: Human hepatic microsomal fractions were obtained from a large pool of human liver (150 individuals) prepared by BD Gentest-Biosciences (BD UltraPool™ HLM 150 – catalogue reference, 452118 Easy Count Box, Woburn, MA). This pooled human liver microsomal batch was also validated internally by the use of FDA-recommended CYP probes (FDA guidance for Industry, draft guidance February 2012).
For glucuronidation pathways, the assay mixture was composed of human liver microsomes (2 mg·mL^−1) or microsomes of baculovirus-infected cells expressing human UGTs (1 mg·mL^−1), uridine 5′-diphosphoglucuronic acid (UDPGA) (3 mmol/L), 100 mmol/L Tris HCl (pH 7.4) containing 5 mmol/L MgCl2 and 5 μmol/L of the investigated compound dissolved in DMSO in a final volume of 500 μL. The final concentration of DMSO in the reaction mixture was less than 1% (v/v). Initial rate conditions with respect to time and protein concentration for both the disappearance of unchanged drug and the formation of respective metabolites were established in preliminary studies. The microsomal mixture was first incubated for 10 min at 4°C in the presence of alamethicin (0.125 mg·mL^−1), then the reaction was initiated by addition of UDPGA (30 mmol/L aqueous solution) to achieve a final concentration of 3 mmol/L for UGT-dependent reactions, incubated at 37°C and stopped after 0–30 min by addition of one volume of ice-cold acetonitrile.
After removal of the proteins by centrifugation at 10,000 rpm for 10 min, a portion of the supernatant was analyzed by LC-UV-MS.
Since a N-glucuronidation process could not be excluded, and because some of the metabolites bear either, a free hydroxyl group or carboxylic acid function, glucuronidation of dronedarone and its potential metabolites was also investigated in human hepatic microsomal fractions in the presence of UDPGA as cofactor. Only propanoic acid-dronedarone and phenol-dronedarone were metabolized in the presence of UDPGA.
Figure 6 Quantitative glucuronidation of propanoic acid-dronedarone (A) and phenol-dronedarone (B) during a 30-min incubation of human hepatic microsomal fractions (1 mg/mL final concentration) with 5 μmol/L unchanged drug in the presence of UDPGA. The kinetics of propanoic acid-dronedarone disappearance (○-○), phenol-dronedarone disappearance and their respective glucuronide formation (●-●, dashed line) were recorded over 30 min. Propanoic acid-dronedarone and phenol-dronedarone were quantified by LC/MS-MS relative to the synthetic references, while the peak area of their respective identified glucuronide was expressed in arbitrary units (×10^3), as described in Materials and Methods.

[3] = BD-91, 1 mmol/L 1-aminobenzotriazole
[4] = BD-296, 1 mmol/L 1-aminobenzotriazole
[5] = HU-1358, 1 mmol/L 1-aminobenzotriazole
[6] = IVT-IBG, 1 mmol/L 1-aminobenzotriazole

SMILES | Effect of ABT on metabolism in hepatocytes (words) [1] | Metabolism in the presence of UDPGA [2] | Unchanged drug remaining, percent of initial concentration ([2]; UDPGA, 30th minute of incubation) [%] | fm Total CYPs [1, 3] [%] | fm Total CYPs [1, 4] [%] | fm Total CYPs [1, 5] [%] | fm Total CYPs [1, 6] [%] | fm Total CYPs, Mean ± SD ([1]; 1 mmol/L 1-aminobenzotriazole) [%] | Initial drug metabolized ([2]; UDPGA, in 10 min) | Effect of ABT on metabolism in hepatocytes (words) ([1]; listed as phenol-dronedarone)
CCCCN(CCCC)CCCOc1ccc(C(=O)O)cc1 [C-dealkyl-dronedarone] | no effect | – | – | – | – | – | – | – | – | –
CCCCc1oc2ccc(NS(C)(=O)=O)cc2c1C(=O)c1ccc(OCCC(=O)O)cc1 [Propanoic acid-dronedarone] | potently inhibited | metabolized | 70 | 87 | 92 | 91 | 89 | 90 ± 3 | – | –
CCCCNCCCOc1ccc(C(=O)c2c(CCCC)oc3ccc(NS(C)(=O)=O)cc23)cc1 [N-debutyl-dronedarone] | moderately decreased its metabolic rate | – | – | 67 | 48 | 51 | 54 | 55 ± 7 | – | –
CCCCc1oc2ccc(NS(C)(=O)=O)cc2c1C(=O)c1ccc(OCCCN(CCCC)CCCC)cc1.Cl [Dronedarone, N-(2-Butyl-3-(4-(3-(dibutylamino)propoxy)benzoyl)-5-benzofuranyl)methanesulfonamide, hydrochloride] | predominant inhibitory effect | – | – | 98 | 99 | 98 | 95 | 98 ± 2 | – | –
CCCCc1oc2ccc(NS(C)(=O)=O)cc2c1C(=O)c1ccc(O)cc1 [Phenol-dronedarone] | did not contribute | metabolized | – | – | – | – | – | – | more than 70% | no significant effect
